Results taken from PubChem BioAssay AID1919013 (Molecular Pharmacology Branch, DTP, NCI, 2023).
Each block holds one compound with its values, some of them ahead of it.

Test system: LG0703-F498-PDC complex spheroid growth
Assay: Anticancer human tumor LG0703-F498-PDC patient-derived lung adenocarcinoma cell line growth inhibition [AhR]
Conditions: for IC50: curve of first compound; for viability, T/C: stronger effect = lower value
Excerpt: Multicellular complex tumor spheroid response to aryl hydrocarbon receptor antagonists in combination with a variety of drugs and investigational agents in selected tumor cell lines
The current study was undertaken to assess response to aryl hydrocarbon receptor antagonists in combination with standard-of-care drugs and investigational agents in solid tumor complex spheroid models. Complex spheroids include a stromal component modeled by human endothelial cells (HUVEC) and fibroblasts modeled by human mesenchymal stem cells (MSCs). The concentration ranges selected for each drug and investigational agent were based upon clinically achievable concentrations if the clinical Cmax of the agent was known.
Compounds. The drugs and investigational agents: BAY 2416964 (NSC825713), GNF351 (NSC835774), CH-223191 (NSC835775), CPI-455 (NSC825282), aza-TdCyd (NSC777586), decitabine (NSC127716), belinostat (NSC758774), entinostat (NSC756642), pevonedistat (NSC761192), tazemetostat (NSC777109), talazoparib (NSC765396), olaparib (NSC753686), selinexor (NSC780203), nedisertib (M3814, NSC802822), bortezomib (NSC756655), venetoclax (NSC766270), doxorubicin (NSC123127), elimusertib (BAY189344, NSC800525), ceralasertib (AZD6738, NSC777638), TAK-243 (NSC785004), alisertib (NSC759677), etoposide (NSC141540), topotecan (NSC609699), eribulin (NSC707389), gemcitabine (NSC613327), carboplatin (NSC241240), cisplatin (NSC119875), and SN-38 (NSC673596) were obtained from the National Cancer Institute (NCI) Developmental Therapeutics Program Chemical Repository (32). The FDA-approved anticancer drug set is available from the Developmental Therapeutics Program at https://dtp.cancer.gov/organization/dscb/obtaining/available plates.htm. […] The stock solutions were prepared in dimethyl sulfoxide (DMSO, Sigma-Aldrich, St. Louis, MO, cat. D2650), except for the platinum compounds which were prepared in saline (Quality Biological, Gaithersburg, MD, cat. 114-055-101), at 800-fold the tested concentration and stored at -70 degrees C prior to their use. All drugs and investigational agents were tested over a range starting from a high concentration at or near the clinical Cmax and decreasing in half-log increments. If the clinical Cmax for an agent had not been determined, the highest concentration tested was 10 microM (Table 1).
Cell Culture. All cells were maintained in an incubator at 37 degrees C and 5% CO2 with 95% humidity. The PDC lines were cultured according to standard operating procedures established by the NCI PDMR (https://pdmr.cancer.gov). Briefly, all PDCs were thawed and cultured in Matrigel-coated flasks prepared with a working solution of 1X Ham's F-12 nutrient mix, without supplementation (Invitrogen, Waltham, MA, cat. 11765054), 100 U/mL penicillin-streptomycin (Invitrogen, cat. 15140122), and 2.5% Matrigel (Corning Inc., Corning, NY, cat. 354248) for the first three passages. All PDCs were cultured in complete DMEM/F-12 media containing advanced DMEM/F-12 (Invitrogen, cat. 12634028), 4.9% defined fetal bovine serum, heat inactivated (HyClone Laboratories Inc., Logan, UT, cat. SH30070.03HI), 389 ng/mL hydrocortisone (Sigma-Aldrich, cat. H4001), 9.7 ng/mL human EGF recombinant protein (Invitrogen, cat. PHG0313), 23.4 microg/mL adenine (Sigma-Aldrich, cat. A2786), 97.3 U/mL penicillin-streptomycin (Invitrogen, cat. 15140122), 1.9 mM L-glutamine (Invitrogen, cat. 25030081), and 9.7 microM Y-27632 dihydrochloride (Tocris Bioscience, Bristol, United Kingdom, cat. 1254). The PDCs were cultured in complete DMEM/F12 media without 10 microM Y-27632 dihydrochloride for at least two passages prior to the screen. The established cell lines NCI-H1341 and […] were cultured in DMEM/F-12, HEPES (Invitrogen, cat. 11330032), 5% defined fetal bovine serum (HyClone Laboratories Inc., cat. SH30070.03), ITS premix universal culture supplement [insulin (5 microg/mL), transferrin (5 microg/mL), and selenious acid (5 ng/mL)] […]

[1] = second compound 0.1 µM, first compound 0.0316 µM
[2] = second compound 0.1 µM, first compound 0.1 µM
[3] = second compound 0.1 µM, first compound 0.316 µM
[4] = second compound 0.1 µM, first compound 1 µM
[5] = second compound 0.1 µM, first compound 3.16 µM
[6] = second compound 0.1 µM, first compound 10 µM
[7] = second compound 0.316 µM, first compound 0.0316 µM
[8] = second compound 0.316 µM, first compound 0.1 µM
[9] = second compound 0.316 µM, first compound 0.316 µM
[10] = second compound 0.316 µM, first compound 1 µM
[11] = second compound 0.316 µM, first compound 3.16 µM
[12] = second compound 0.316 µM, first compound 10 µM
[13] = second compound 1 µM, first compound 0.0316 µM
[14] = second compound 1 µM, first compound 0.1 µM
[15] = second compound 1 µM, first compound 0.316 µM
[16] = second compound 1 µM, first compound 1 µM
[17] = second compound 1 µM, first compound 3.16 µM
[18] = second compound 1 µM, first compound 10 µM
[19] = second compound 3.16 µM, first compound 0.0316 µM
[20] = second compound 3.16 µM, first compound 0.1 µM
[21] = second compound 3.16 µM, first compound 0.316 µM
[22] = second compound 3.16 µM, first compound 1 µM
[23] = second compound 3.16 µM, first compound 3.16 µM
[24] = second compound 3.16 µM, first compound 10 µM
[25] = second compound 10 µM, first compound 0.0316 µM
[26] = second compound 10 µM, first compound 0.1 µM
[27] = second compound 10 µM, first compound 0.316 µM
[28] = second compound 10 µM, first compound 1 µM
[29] = second compound 10 µM, first compound 3.16 µM
[30] = second compound 10 µM, first compound 10 µM
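Further: luminescence taken as a proxy for viable cell amount.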
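Wherever viability, T/C is given: percent of DMSO vehicle control where 100% means growth equal to vehicle.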

- IC50 (second compound 0.1 µM): 47.4 nM
- IC50 (second compound 0.316 µM): 24.4 nM
- IC50 (second compound 1 µM): 28.3 nM
- IC50 (second compound 3.16 µM): 19.8 nM
- IC50 (second compound 10 µM): 15.7 nM
SMILES: CCc1c2c(nc3ccc(O)cc13)-c1cc3c(c(=O)n1C2)COC(=O)[C@]3(O)CC + CC(CO)NC(=O)c1cc(-c2ccc(Cl)cc2)nn(-c2cnn(C)c2)c1=O
- viability, T/C (second compound 0.1 µM, first compound 0.000949 µM): 96.2%
- viability, T/C (second compound 0.1 µM, first compound 0.003 µM): 84.6%
- viability, T/C (second compound 0.1 µM, first compound 0.00949 µM): 69.7%
- viability, T/C (second compound 0.1 µM, first compound 0.03 µM): 54%
- viability, T/C (second compound 0.1 µM, first compound 0.0949 µM): 44%
- viability, T/C (second compound 0.1 µM, first compound 0.3 µM): 26.3%
- viability, T/C (second compound 0.316 µM, first compound 0.000949 µM): 82.8%
- viability, T/C (second compound 0.316 µM, first compound 0.003 µM): 94.1%
- viability, T/C (second compound 0.316 µM, first compound 0.00949 µM): 62.5%
- viability, T/C (second compound 0.316 µM, first compound 0.03 µM): 46.9%
- viability, T/C (second compound 0.316 µM, first compound 0.0949 µM): 36.9%
- viability, T/C (second compound 0.316 µM, first compound 0.3 µM): 24.3%
- viability, T/C (second compound 1 µM, first compound 0.000949 µM): 79%
- viability, T/C (second compound 1 µM, first compound 0.003 µM): 75.6%
- viability, T/C (second compound 1 µM, first compound 0.00949 µM): 67.8%
- viability, T/C (second compound 1 µM, first compound 0.03 µM): 48.9%
- viability, T/C (second compound 1 µM, first compound 0.0949 µM): 32.6%
- viability, T/C (second compound 1 µM, first compound 0.3 µM): 26%
- viability, T/C (second compound 3.16 µM, first compound 0.000949 µM): 72.7%
- viability, T/C (second compound 3.16 µM, first compound 0.003 µM): 73.2%
- viability, T/C (second compound 3.16 µM, first compound 0.00949 µM): 58.5%
- viability, T/C (second compound 3.16 µM, first compound 0.03 µM): 45.6%
- viability, T/C (second compound 3.16 µM, first compound 0.0949 µM): 27.8%
- viability, T/C (second compound 3.16 µM, first compound 0.3 µM): 22.5%
- viability, T/C (second compound 10 µM, first compound 0.000949 µM): 72%
- viability, T/C (second compound 10 µM, first compound 0.003 µM): 74%
- viability, T/C (second compound 10 µM, first compound 0.00949 µM): 56.5%
- viability, T/C (second compound 10 µM, first compound 0.03 µM): 40.5%
- viability, T/C (second compound 10 µM, first compound 0.0949 µM): 26.4%
- viability, T/C (second compound 10 µM, first compound 0.3 µM): 24.5%

- IC50 (second compound 0.1 µM): 401 nM
- IC50 (second compound 0.316 µM): 428 nM
- IC50 (second compound 1 µM): 461 nM
- IC50 (second compound 3.16 µM): 413 nM
- IC50 (second compound 10 µM): 335 nM
SMILES: Nc1ccccc1NC(=O)c1ccc(CNC(=O)OCc2cccnc2)cc1 + CC(CO)NC(=O)c1cc(-c2ccc(Cl)cc2)nn(-c2cnn(C)c2)c1=O
- viability, T/C [1]: 82.4%
- viability, T/C [2]: 86.8%
- viability, T/C [3]: 56.2%
- viability, T/C [4]: 19.3%
- viability, T/C [5]: 2.71%
- viability, T/C [6]: 0.45%
- viability, T/C [7]: 72.8%
- viability, T/C [8]: 71.6%
- viability, T/C [9]: 59.7%
- viability, T/C [10]: 22.6%
- viability, T/C [11]: 2.65%
- viability, T/C [12]: 0.63%
- viability, T/C [13]: 77.8%
- viability, T/C [14]: 79.9%
- viability, T/C [15]: 64.5%
- viability, T/C [16]: 19.6%
- viability, T/C [17]: 3.74%
- viability, T/C [18]: 0.67%
- viability, T/C [19]: 74.3%
- viability, T/C [20]: 71.6%
- viability, T/C [21]: 59.3%
- viability, T/C [22]: 19.7%
- viability, T/C [23]: 2.42%
- viability, T/C [24]: 0.89%
- viability, T/C [25]: 70.4%
- viability, T/C [26]: 77%
- viability, T/C [27]: 48.1%
- viability, T/C [28]: 21.8%
- viability, T/C [29]: 3.12%
- viability, T/C [30]: 1.17%

- IC50 (second compound 0.1 µM): > 10000 nM
- IC50 (second compound 0.316 µM): > 10000 nM
- IC50 (second compound 1 µM): > 10000 nM
- IC50 (second compound 3.16 µM): > 10000 nM
- IC50 (second compound 10 µM): > 10000 nM
SMILES: O=C(c1cc(Cc2n[nH]c(=O)c3ccccc23)ccc1F)N1CCN(C(=O)C2CC2)CC1 + CC(CO)NC(=O)c1cc(-c2ccc(Cl)cc2)nn(-c2cnn(C)c2)c1=O
- viability, T/C [1]: 95.2%
- viability, T/C [2]: 99.8%
- viability, T/C [3]: 94.8%
- viability, T/C [4]: 86.6%
- viability, T/C [5]: 95.3%
- viability, T/C [6]: 70.4%
- viability, T/C [7]: 96.2%
- viability, T/C [8]: 98.4%
- viability, T/C [9]: 87.5%
- viability, T/C [10]: 82.4%
- viability, T/C [11]: 88.8%
- viability, T/C [12]: 83.1%
- viability, T/C [13]: 93%
- viability, T/C [14]: 108%
- viability, T/C [15]: 95.7%
- viability, T/C [16]: 74.4%
- viability, T/C [17]: 86.1%
- viability, T/C [18]: 81%
- viability, T/C [19]: 89.3%
- viability, T/C [20]: 91%
- viability, T/C [21]: 94.5%
- viability, T/C [22]: 74.1%
- viability, T/C [23]: 79%
- viability, T/C [24]: 72%
- viability, T/C [25]: 77.4%
- viability, T/C [26]: 78.6%
- viability, T/C [27]: 82.7%
- viability, T/C [28]: 80%
- viability, T/C [29]: 81.8%
- viability, T/C [30]: 79.8%
